# Patent US20150290176A1, “USE OF MTOR INHIBITORS TO TREAT VASCULAR COGNITIVE IMPAIRMENT” (THE BOARD OF REGENTS OF THE UNIVERSITY OF TEXAS SYSTEM, priority 2012, published 2015)
# Like-named read-outs stand apart in the source and are kept apart here.
# Tests used:
# [1] = Rapamycin levels in brain regions of AD mice chronically fed rapamycin-supplemented chow; type: in vivo; conditions: PDAPP transgenic (AD mice), mouse, oral, 2.24 mg/kg body weight/day, AD mice chronically fed rapamycin chow (2.24 mg/kg/day)
# Procedure: The inventors used magnetic resonance imaging (MRI) arterial spin labeling (ASL) techniques in vivo, as well as other functional imaging, in vivo optical imaging, and behavioral and biochemical tools to determine whether rapamycin treatment affects the progression of established deficits in the transgenic PDAPP mouse model of Alzheimer's Disease (Galvan, et al., 2005; Hsia, et al., 1999; Mucke, et al., 2000) (“AD mice”). AD mice and unaffected littermates were treated with rapamycin after the onset of AD-like impairments at 7 months of age (Galvan, et al., 2005; Hsia, et al., 1999; Mucke, et al., 2000) for a total of 16 weeks. Rapamycin levels in brain regions of AD mice chronically fed with rapamycin ranged from 0.98 to 2.40 pg/mg. Levels in hippocampus were 1.55 pg/mg (see FIG. 5).
# Rapamycin treatment. Mice were fed chow containing either microencapsulated enteric-coated rapamycin at 2.24 mg/kg or a control diet as described by Harrison et al., 2009. Rapamycin was used at 14 mg per kg food (verified by HPLC). On the assumption that the average mouse weighs 30 gm and consumes 5 gm of food/day, this dose supplied 2.24 mg rapamycin per kg body weight/day (Harrison, et al., 2009). All mice were given ad libitum access to rapamycin or control food and water for the duration of the experiment. Body weights and food intake were measured weekly. […]
# cortical vessels = experiment: In vivo 2-photon imaging of cortical vessel diameter; design: species or system mouse
# Source text: (§1) In vivo imaging experiments. Details of experimental procedures were identical to our previously published protocols (Zheng, et al., 2010). Briefly, mice were anesthetized with volatile isoflurane through a nosecone (3% induction, 1.5% maintenance). The depth of anesthesia was monitored by regular checking of whisker movement and the pinch withdrawal reflex of the hind limb and tail. Also, during surgery and imaging, three main vital signs including heart rate, respiratory rate, and oxygen saturation were periodically assessed by use of the MouseOx system (STARR Life Sciences). Body temperature was maintained at 37° C. by use of feedback-controlled heating pad (Gaymar T/Pump). Initially, the scalp was shaved, incised along the midline and retracted to expose the dorsal skull. Then removal of periosteum by forceps and cleaning of skull by a sterile cotton swab were performed. A stainless steel head plate was glutted (VetBond, 3M, St. Paul, Minn.) to dorsal skull and screwed to a custom-made stereotaxic frame. To create a thin-skull cranial window over the somotosensory cortex, skull was initially thinned by high-speed electric drill (Fine Science Tools, Foster City, Calif.) and subsequently thinned to approximate 50 μm by using a surgical blade under a dissecting microscope (Nikon SMZ800). […] The diameter of blood vessels was analyzed by Image J plugin vessel diameter. […]
# [2] = Body weight and food intake during rapamycin feeding; type: in vivo, mouse
# Procedure: Rapamycin treatment. Mice were fed chow containing either microencapsulated enteric-coated rapamycin at 2.24 mg/kg or a control diet as described by Harrison et al., 2009. Rapamycin was used at 14 mg per kg food (verified by HPLC). On the assumption that the average mouse weighs 30 gm and consumes 5 gm of food/day, this dose supplied 2.24 mg rapamycin per kg body weight/day (Harrison, et al., 2009). All mice were given ad libitum access to rapamycin or control food and water for the duration of the experiment. Body weights and food intake were measured weekly. […] Littermates (transgenic and non-transgenic mice) were housed together, thus we could not distinguish effects of genotype on food consumption. Even though there were no differences in food consumption, body weights of rapamycin-fed non-transgenic, but not transgenic, females increased moderately during treatment, (6.8% increase for rapamycin-fed vs control-fed non-transgenic females). The higher increase in body weight for non-transgenic animals is not unexpected, since non-transgenic animals of both genders tend to be slightly (1-3 g) heavier than AD transgenic.
# AD mice = experiment: Cerebral blood flow by MRI continuous arterial spin labeling; type: in vivo, mouse; conditions: rapamycin-fed 16 weeks, then L-NAME for 4 additional weeks
# Procedure: Rapamycin treatment. Mice were fed chow containing either microencapsulated enteric-coated rapamycin at 2.24 mg/kg or a control diet as described by Harrison et al., 2009. Rapamycin was used at 14 mg per kg food (verified by HPLC). On the assumption that the average mouse weighs 30 gm and consumes 5 gm of food/day, this dose supplied 2.24 mg rapamycin per kg body weight/day (Harrison, et al., 2009). All mice were given ad libitum access to rapamycin or control food and water for the duration of the experiment. Body weights and food intake were measured weekly. […] Littermates (transgenic and non-transgenic mice) were housed together, thus we could not distinguish effects of genotype on food consumption. […]
# Animal Preparation for Functional Neuroimaging. […] Respiration rate (90-130 bpm) and rectal temperature (37±0.5° C.) were continuously monitored. Heart rate and blood oxygen saturation level (SaO2) were recorded using a MouseOx system (STARR Life Science Corp., Oakmont, Pa.) and maintained within normal physiological ranges.
# Cerebral Blood Flow. Quantitative CBF (with unit of […]) was measured using the MRI based continuous arterial spin labeling (CASL) techniques (Duong, et al., 2000; Muir, et al., 2008) on a horizontal 7T/30 cm magnet and a 40G/cm BGA12S gradient insert (Bruker, Billerica, Mass.). […]
# [3] = system: NO production in cortical vessels; experiment: In vivo imaging of NO production in cortical vessels with NO-sensitive probe DAF-FM; design: species or system mouse; conditions: L-NAME 30 mg/kg intraperitoneally before rapamycin
# Source text: as §1
Structure (SMILES),"concentration at 16 weeks ([1]; hippocampus, read-out: Rapamycin levels in hippocampus) [ng/g]","concentration at 16 weeks ([1]; range over brain regions, read-out: Rapamycin levels in brain regions) [ng/g]","Increase in diameter of small and medium-sized cortical vessels (cortical vessels; rapamycin 10 mg/kg intraperitoneally, 10 min after administration)",Food consumption ([2]; control- vs rapamycin-fed groups),"Body weight increase, rapamycin-fed vs control-fed ([2]; non-transgenic females, during treatment) [%]",CBF in rapamycin-fed AD mice injected with L-NAME (AD mice),Effect of L-NAME pretreatment on rapamycin-induced vasodilation (cortical vessels; L-NAME 30 mg/kg intraperitoneally before rapamycin),Effect of L-NAME pretreatment on rapamycin-induced NO release [3]
CO[C@H]1C[C@@H]2CC[C@@H](C)[C@@](O)(O2)C(=O)C(=O)N2CCCC[C@H]2C(=O)O[C@H]([C@H](C)C[C@@H]2CC[C@@H](O)[C@H](OC)C2)CC(=O)[C@H](C)/C=C(\C)[C@@H](O)[C@@H](OC)C(=O)[C@H](C)C[C@H](C)/C=C/C=C/C=C/1C [rapamycin],1.55,0.98 to 2.4,23-35%,comparable,6.8,,,
"COC(=O)[C@@H](N)CCCNC(=N)N[N+](=O)[O-] [L-NAME, L-NG-Nitroarginine methyl ester]",,,,,,CBF deficits comparable to control-fed AD mice,abrogated,abrogated
